# Earlier results, collected in US20200368163A1, “EN[…]-DISPERSIBLE CANNABINOID NANOPARTICLE COMPOSITIONS, METHODS AND SYSTEMS” (The Trustees of Princeton University, priority 2019, published 2020).
structure (smiles),measurement,value
"C=C(C)[C@@H]1CCC(C)=C[C@H]1c1c(O)cc(CCCCC)cc1O [CBD, Cannabidiol]",log P,~6
